Our source for the TGI values is PubChem BioAssay (NCI).

Common to all, as to test: NCI tumour cell line growth inhibition, 48 h
The subject of test [1] is SN12K1 renal.
Test [2] concerns P388 leukemia.
Test [3] deals with SNB-78 CNS.
The subject of test [4] is P388/ADR leukemia.
The subject of test [5] is DMS 114 small cell lung.
The test system of test [6] is XF 498 CNS.
In test [7] the test system is M19-MEL melanoma.
The test system of test [8] is LXFL 529 NSCLC.
Test [9] concerns RXF-631 renal.

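A five-concentration, 48-hour dose response in 96-well plates underlies each endpoint, interpolated linearly between surrounding concentrations. At the TGI there is no net growth.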 Where only a bound is given, the exact number is not on record here.

For `Cc1cn(C2CC(O)C(CO)O2)c(=O)[nH]c1=O` (centres undefined), the TGI in test [1] was 4.53 mM; in [2], 1.97 mM; in test [3], greater than 5 mM; in test [4], 2.65 mM; in test [5] it was greater than 4.67 mM; in test [6] it was 0.366 mM. Further, the TGI in test [7] was greater than 5 mM.

Take `CC1=NS(=O)(=O)c2ccccc2N1`: the TGI in test [8], in [3], in test [5] and in test [7] was greater than 0.1 mM each time.

Regarding `CSc1nsc(-c2ccccc2)[s+]1`, the TGI in test [9], in test [3] and in test [7] was greater than 0.1 mM throughout.
